This passage reports Kd results from ChEMBL document CHEMBL3991601, “The target landscape of clinical kinase drugs” (Science, 2017).

In one test the target is Insulin receptor (Homo sapiens, UniProt P06213).
Test [1] concerns the target Citron Rho-interacting kinase (Homo sapiens, UniProt O14578).
Test [2] addresses T1, Serine/threonine-protein kinase PLK4 (Homo sapiens, UniProt O00444).
T1 sequence (O00444 whole entry): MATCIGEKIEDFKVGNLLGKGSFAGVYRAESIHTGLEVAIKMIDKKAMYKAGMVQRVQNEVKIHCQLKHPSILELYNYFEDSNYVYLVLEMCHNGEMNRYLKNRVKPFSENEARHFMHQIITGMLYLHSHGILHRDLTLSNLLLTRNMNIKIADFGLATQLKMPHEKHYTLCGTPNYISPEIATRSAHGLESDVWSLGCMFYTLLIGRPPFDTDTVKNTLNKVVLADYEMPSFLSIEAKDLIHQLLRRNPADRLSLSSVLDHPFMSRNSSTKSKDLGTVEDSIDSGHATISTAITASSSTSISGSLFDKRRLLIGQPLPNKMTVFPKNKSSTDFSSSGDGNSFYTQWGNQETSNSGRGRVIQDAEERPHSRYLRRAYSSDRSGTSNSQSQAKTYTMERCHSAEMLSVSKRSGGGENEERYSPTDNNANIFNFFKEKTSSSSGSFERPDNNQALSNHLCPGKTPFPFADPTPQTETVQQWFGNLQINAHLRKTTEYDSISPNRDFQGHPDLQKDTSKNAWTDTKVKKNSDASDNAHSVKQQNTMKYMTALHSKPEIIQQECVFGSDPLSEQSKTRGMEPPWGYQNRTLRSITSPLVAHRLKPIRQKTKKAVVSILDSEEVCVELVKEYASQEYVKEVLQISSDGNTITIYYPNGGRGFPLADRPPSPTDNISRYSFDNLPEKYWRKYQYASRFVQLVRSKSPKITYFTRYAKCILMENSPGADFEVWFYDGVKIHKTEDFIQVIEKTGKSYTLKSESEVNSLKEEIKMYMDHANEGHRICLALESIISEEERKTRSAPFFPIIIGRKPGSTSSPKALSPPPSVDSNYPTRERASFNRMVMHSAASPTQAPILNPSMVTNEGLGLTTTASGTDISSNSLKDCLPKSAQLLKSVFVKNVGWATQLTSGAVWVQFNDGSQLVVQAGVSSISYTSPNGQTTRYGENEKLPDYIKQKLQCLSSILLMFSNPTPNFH

Test [3] concerns the target Mitogen-activated protein kinase 7 (Homo sapiens, UniProt Q13164).
Test [4] deals with GTP-binding nuclear protein Ran (Homo sapiens, UniProt P62826).
The target of test [5] is Mitogen-activated protein kinase 8 (Homo sapiens, UniProt P45983).
Mitogen-activated protein kinase 8, sequence (P45983 whole entry): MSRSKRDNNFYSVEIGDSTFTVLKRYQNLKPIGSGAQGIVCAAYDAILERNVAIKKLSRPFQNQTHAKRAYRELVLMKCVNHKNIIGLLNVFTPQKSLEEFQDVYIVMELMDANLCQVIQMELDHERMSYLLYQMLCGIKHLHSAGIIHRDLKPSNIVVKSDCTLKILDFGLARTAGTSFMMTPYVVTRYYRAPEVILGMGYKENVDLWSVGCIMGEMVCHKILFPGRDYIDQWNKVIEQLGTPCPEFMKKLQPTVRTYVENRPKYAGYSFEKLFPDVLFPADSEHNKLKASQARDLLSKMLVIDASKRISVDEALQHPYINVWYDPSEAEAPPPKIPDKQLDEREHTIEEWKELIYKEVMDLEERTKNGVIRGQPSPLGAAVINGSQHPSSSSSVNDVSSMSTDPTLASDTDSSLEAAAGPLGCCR
For test [6], the target named is T2, Serine/threonine-protein kinase LATS1 (Homo sapiens, UniProt O95835).
T2 sequence (O95835 whole entry): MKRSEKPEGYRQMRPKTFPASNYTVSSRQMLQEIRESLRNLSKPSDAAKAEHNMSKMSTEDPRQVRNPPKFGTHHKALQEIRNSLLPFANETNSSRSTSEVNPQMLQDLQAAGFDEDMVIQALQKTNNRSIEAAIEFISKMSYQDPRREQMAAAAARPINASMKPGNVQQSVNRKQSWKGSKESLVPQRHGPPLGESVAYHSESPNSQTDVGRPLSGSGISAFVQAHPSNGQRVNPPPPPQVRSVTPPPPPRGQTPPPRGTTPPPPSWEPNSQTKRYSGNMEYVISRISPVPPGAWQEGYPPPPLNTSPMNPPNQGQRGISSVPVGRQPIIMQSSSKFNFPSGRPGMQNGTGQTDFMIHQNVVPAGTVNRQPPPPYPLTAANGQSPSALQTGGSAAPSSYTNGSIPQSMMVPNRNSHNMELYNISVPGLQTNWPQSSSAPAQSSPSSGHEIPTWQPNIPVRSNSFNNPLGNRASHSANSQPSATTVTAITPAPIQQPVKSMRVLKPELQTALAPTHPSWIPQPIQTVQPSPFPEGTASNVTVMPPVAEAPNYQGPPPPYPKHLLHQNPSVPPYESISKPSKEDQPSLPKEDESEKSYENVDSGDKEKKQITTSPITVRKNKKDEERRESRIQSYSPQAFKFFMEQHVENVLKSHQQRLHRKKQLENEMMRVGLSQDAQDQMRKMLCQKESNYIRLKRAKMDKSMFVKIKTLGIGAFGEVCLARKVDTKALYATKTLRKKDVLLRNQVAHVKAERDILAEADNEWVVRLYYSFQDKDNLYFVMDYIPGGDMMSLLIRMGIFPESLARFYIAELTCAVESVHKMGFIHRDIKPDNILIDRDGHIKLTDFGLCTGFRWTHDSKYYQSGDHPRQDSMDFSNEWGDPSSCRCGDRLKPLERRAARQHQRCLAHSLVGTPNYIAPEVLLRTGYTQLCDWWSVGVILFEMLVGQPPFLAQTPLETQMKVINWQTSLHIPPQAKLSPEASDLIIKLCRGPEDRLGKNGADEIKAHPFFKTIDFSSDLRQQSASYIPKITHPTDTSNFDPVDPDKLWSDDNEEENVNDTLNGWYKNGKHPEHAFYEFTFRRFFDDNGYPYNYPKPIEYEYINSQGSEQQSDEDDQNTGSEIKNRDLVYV

In the next test the target is T3, Pyridoxal kinase (Homo sapiens, UniProt O00764).
T3 sequence (O00764 whole entry): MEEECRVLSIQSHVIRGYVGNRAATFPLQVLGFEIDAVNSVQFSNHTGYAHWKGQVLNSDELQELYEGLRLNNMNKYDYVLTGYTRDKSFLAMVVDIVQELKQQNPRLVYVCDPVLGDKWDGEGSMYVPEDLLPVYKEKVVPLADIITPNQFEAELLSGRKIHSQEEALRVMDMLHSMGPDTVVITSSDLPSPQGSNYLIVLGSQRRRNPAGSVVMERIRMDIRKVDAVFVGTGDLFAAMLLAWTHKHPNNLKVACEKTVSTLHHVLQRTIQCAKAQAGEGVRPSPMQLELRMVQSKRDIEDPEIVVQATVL

Test [7] concerns the target Interleukin-1 receptor-associated kinase 1 (Homo sapiens, UniProt P51617).
The target of test [8] is Tyrosine-protein kinase ABL1 (Homo sapiens, UniProt P00519).
Tyrosine-protein kinase ABL1, sequence (P00519 whole entry): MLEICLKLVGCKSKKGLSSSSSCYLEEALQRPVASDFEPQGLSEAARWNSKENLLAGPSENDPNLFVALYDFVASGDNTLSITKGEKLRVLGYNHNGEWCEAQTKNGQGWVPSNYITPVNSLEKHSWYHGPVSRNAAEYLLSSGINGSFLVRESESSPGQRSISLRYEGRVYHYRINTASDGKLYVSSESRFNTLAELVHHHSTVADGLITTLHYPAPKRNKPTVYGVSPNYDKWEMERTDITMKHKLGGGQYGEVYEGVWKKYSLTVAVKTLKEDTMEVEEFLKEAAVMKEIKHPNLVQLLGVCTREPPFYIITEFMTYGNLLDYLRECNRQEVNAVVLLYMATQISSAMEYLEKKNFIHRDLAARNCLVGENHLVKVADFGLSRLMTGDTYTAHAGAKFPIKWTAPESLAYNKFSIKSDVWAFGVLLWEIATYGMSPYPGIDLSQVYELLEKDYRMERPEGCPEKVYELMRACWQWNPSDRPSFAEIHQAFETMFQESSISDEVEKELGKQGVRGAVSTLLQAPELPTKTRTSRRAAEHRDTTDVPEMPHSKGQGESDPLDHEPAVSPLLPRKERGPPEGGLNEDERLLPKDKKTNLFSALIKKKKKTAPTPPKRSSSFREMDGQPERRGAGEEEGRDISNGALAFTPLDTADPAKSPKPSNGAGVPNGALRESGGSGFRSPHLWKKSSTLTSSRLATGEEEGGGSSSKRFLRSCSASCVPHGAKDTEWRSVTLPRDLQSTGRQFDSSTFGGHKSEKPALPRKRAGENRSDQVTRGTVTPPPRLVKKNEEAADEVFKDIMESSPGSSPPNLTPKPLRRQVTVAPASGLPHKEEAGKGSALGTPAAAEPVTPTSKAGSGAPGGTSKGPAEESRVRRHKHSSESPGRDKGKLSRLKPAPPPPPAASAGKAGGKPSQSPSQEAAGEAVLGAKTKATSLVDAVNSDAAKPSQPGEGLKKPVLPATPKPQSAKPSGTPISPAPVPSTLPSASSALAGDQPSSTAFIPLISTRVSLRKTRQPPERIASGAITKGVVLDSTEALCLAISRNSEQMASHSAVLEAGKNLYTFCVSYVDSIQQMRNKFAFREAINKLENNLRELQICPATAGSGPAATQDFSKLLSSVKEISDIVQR

The structures appear in SMILES notation. The source made the active and inactive calls. For most assays here, no stated cut-off is given here; in the data, actives have a measured Kd and inactives only a lower limit.

Mitogen-activated protein kinase 7, sequence (Q13164 whole entry): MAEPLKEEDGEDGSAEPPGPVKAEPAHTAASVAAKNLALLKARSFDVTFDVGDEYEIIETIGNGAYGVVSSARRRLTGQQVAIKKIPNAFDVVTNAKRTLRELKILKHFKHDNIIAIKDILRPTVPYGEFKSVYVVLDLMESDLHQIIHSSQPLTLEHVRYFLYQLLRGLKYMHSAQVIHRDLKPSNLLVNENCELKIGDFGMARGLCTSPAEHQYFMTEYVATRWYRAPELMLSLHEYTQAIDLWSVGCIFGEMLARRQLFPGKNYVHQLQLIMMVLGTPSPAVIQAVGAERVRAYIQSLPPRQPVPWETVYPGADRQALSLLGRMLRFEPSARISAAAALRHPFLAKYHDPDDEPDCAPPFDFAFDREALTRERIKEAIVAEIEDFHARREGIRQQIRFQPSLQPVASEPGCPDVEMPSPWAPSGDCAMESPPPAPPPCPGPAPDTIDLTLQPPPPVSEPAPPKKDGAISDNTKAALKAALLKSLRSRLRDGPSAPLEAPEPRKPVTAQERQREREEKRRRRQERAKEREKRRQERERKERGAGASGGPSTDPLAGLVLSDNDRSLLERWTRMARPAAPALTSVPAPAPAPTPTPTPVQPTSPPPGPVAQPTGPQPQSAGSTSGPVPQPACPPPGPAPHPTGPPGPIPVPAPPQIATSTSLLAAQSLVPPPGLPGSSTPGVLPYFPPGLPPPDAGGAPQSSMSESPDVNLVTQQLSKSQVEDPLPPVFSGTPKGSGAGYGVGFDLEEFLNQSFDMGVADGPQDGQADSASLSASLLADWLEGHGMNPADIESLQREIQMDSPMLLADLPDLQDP
Citron Rho-interacting kinase, sequence (O14578 whole entry): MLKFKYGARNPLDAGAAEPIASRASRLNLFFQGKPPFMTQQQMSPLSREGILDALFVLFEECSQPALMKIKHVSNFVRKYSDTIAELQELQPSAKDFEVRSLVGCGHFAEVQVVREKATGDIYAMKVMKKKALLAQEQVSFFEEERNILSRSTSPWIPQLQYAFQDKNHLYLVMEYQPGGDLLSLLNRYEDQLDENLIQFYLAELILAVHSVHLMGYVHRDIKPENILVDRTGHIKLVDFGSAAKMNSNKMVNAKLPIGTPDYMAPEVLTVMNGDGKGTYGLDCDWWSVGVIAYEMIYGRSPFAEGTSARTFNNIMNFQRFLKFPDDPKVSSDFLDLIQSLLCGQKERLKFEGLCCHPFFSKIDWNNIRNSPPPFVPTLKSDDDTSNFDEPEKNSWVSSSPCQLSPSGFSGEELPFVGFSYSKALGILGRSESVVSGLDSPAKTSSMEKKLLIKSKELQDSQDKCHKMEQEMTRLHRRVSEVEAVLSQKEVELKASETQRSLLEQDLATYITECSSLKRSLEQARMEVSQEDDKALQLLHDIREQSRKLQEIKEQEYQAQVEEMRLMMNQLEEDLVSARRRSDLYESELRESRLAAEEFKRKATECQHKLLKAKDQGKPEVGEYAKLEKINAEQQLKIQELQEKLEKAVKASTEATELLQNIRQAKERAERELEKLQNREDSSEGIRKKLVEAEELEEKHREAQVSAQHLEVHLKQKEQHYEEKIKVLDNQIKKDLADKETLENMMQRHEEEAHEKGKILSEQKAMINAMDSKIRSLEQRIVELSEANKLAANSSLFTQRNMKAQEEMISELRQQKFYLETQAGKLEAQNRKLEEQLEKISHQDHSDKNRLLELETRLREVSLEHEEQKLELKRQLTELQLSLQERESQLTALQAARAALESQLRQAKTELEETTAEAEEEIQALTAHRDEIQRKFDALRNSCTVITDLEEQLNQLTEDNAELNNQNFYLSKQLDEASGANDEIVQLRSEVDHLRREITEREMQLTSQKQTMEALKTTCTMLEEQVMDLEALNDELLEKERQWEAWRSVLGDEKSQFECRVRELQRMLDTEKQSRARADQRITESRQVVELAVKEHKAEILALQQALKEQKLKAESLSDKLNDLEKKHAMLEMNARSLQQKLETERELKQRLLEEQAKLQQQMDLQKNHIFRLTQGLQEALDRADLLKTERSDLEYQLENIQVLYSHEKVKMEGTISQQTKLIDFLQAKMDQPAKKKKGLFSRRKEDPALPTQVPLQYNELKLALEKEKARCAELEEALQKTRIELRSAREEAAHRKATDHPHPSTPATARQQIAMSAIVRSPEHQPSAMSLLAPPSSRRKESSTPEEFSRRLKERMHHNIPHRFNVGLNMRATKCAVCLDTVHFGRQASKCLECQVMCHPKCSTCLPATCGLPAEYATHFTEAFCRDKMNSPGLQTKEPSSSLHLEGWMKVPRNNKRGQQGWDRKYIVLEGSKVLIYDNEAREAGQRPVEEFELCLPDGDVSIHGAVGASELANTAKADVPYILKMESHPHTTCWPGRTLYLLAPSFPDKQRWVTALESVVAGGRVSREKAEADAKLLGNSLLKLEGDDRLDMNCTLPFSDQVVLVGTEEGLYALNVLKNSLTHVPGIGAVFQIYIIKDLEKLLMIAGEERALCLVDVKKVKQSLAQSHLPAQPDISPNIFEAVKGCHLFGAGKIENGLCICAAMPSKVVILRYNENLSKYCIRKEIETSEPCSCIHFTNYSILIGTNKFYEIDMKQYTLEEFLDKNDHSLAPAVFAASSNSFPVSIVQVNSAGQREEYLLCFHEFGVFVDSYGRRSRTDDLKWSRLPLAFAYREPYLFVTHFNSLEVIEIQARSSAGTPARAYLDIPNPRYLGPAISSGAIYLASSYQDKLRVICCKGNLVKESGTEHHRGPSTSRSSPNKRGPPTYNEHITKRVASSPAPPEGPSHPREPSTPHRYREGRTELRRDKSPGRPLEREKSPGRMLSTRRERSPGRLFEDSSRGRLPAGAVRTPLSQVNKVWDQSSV
Interleukin-1 receptor-associated kinase 1, sequence (P51617 whole entry): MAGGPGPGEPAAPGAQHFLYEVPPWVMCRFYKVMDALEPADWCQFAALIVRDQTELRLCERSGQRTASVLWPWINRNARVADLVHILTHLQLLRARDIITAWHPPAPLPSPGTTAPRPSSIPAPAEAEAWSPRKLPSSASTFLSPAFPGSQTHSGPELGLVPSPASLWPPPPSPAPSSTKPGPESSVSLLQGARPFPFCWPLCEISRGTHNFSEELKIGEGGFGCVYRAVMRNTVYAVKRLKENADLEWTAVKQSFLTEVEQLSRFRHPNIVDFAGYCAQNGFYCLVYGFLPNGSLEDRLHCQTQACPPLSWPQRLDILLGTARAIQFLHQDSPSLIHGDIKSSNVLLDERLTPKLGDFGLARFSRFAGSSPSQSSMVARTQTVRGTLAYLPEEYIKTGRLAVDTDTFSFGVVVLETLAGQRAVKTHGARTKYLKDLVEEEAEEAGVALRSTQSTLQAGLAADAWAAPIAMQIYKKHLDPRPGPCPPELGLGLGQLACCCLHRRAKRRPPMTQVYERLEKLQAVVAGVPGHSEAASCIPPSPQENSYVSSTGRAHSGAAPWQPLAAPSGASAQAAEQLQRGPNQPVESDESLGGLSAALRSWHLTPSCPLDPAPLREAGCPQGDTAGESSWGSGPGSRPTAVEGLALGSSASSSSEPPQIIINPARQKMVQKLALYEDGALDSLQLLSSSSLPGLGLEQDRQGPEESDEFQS

Regarding `CO[C@H]1C[C@@H]2CC[C@@H](C)[C@@](O)(O2)C(=O)C(=O)N2CCCC[C@H]2C(=O)O[C@H]([C@H](C)C[C@@H]2CC[C@@H](OP(C)(C)=O)[C@H](OC)C2)CC(=O)[C@H](C)/C=C(\C)[C@@H](O)[C@@H](OC)C(=O)[C@H](C)C[C@H](C)/C=C/C=C/C=C/1C` [RIDAFOROLIMUS], the Kd (at Insulin receptor; in test [1]; in [2]; in test [3]; in test [4]; in test [5]) was > 30 µM (inactive) throughout. Moreover, the Kd (in test [6]; at Pyridoxal kinase; in test [7]; in [8]) was > 30 µM (inactive) throughout.

Regarding `N#CC1(c2ccc(NC(=O)c3cccnc3NCc3ccncc3)cc2)CCCC1` [RIVOCERANIB], the Kd (at Insulin receptor; in [1]; in test [2]; in test [3]; in test [4]; in test [5]) was > 30 µM (inactive) in each case. The Kd (in test [6]; at Pyridoxal kinase; in test [7]; in test [8]) was > 30 µM (inactive) throughout.

Regarding `O=c1[nH]ccc2cc(OC3CCNCC3)ccc12` [SAR-407899 FREE BASE], the Kd (at Insulin receptor; in test [1]; in [2]; in test [3]; in [4]; in [5]) was > 30 µM (inactive) each time. In addition, the Kd (in [6]; on Pyridoxal kinase; in [7]; in test [8]) was > 30 µM (inactive) in each case.

Take `Cn1cc(-c2cnn3c(N)c(Br)c([C@@H]4CCCNC4)nc23)cn1` [SCH-900776]: the Kd (at Insulin receptor; in [1]; in test [2]; in [3]; in [4]; in test [5]) was > 30 µM (inactive) throughout. The Kd in [6] was 4.62 µM (active); on Pyridoxal kinase it was > 30 µM (inactive); in test [7], > 30 µM (inactive); in test [8] it was > 30 µM (inactive).

Regarding `CO[C@H]1C[C@@H]2CC[C@@H](C)[C@@](O)(O2)C(=O)C(=O)N2CCCC[C@H]2C(=O)O[C@H]([C@H](C)C[C@@H]2CC[C@@H](O)[C@H](OC)C2)CC(=O)[C@H](C)/C=C(\C)[C@@H](O)[C@@H](OC)C(=O)[C@H](C)C[C@H](C)/C=C/C=C/C=C/1C` [SIROLIMUS], the Kd (at Insulin receptor; in test [1]; in test [2]; in test [3]; in test [4]; in [5]) was > 30 µM (inactive) each time. Further, the Kd (in [6]; at Pyridoxal kinase; in [7]; in [8]) was > 30 µM (inactive) each time.

On to `CCS(=O)(=O)c1cccc(-c2cc(C(=O)NC3CCN(C)CC3)c(C)c3[nH]c4ncc(C)cc4c23)c1` [TAK-901], for which the Kd was > 30 µM (inactive) at Insulin receptor; > 30 µM (inactive) in test [1]; 0.041 µM (active) in test [2]; > 30 µM (inactive) in test [3]; > 30 µM (inactive) in test [4]; > 30 µM (inactive) in [5]. Also, the Kd in test [6] was > 30 µM (inactive); at Pyridoxal kinase, > 30 µM (inactive); in [7], > 30 µM (inactive); in test [8] it was 0.31 µM (active).

Take `CO[C@H]1C[C@@H]2CC[C@@H](C)[C@@](O)(O2)C(=O)C(=O)N2CCCC[C@H]2C(=O)O[C@H]([C@H](C)C[C@@H]2CC[C@@H](OC(=O)C(C)(CO)CO)[C@H](OC)C2)CC(=O)[C@H](C)/C=C(\C)[C@@H](O)[C@@H](OC)C(=O)[C@H](C)C[C@H](C)/C=C/C=C/C=C/1C` [TEMSIROLIMUS]: the Kd (on Insulin receptor; in test [1]; in [2]; in test [3]; in test [4]; in test [5]) was > 30 µM (inactive) in each case. Moreover, the Kd (in test [6]; at Pyridoxal kinase; in test [7]; in [8]) was > 30 µM (inactive) each time.

As for `COc1cc2c(Nc3ccc(Cl)c(Cl)c3F)ncnc2cc1OC[C@@H]1C[C@@H]2CN(C)C[C@@H]2C1` [TESEVATINIB], the Kd (on Insulin receptor; in test [1]; in [2]; in [3]; in [4]; in [5]) was > 30 µM (inactive) in each case. The Kd in test [6] was > 30 µM (inactive); on Pyridoxal kinase it was > 30 µM (inactive); in test [7] it was > 30 µM (inactive); in test [8], 0.921 µM (active).

Take `O=C(Cc1ccc(-c2ccc(OCCN3CCOCC3)cc2)cn1)NCc1ccccc1` [TIRBANIBULIN]: the Kd (at Insulin receptor; in test [1]; in test [2]; in test [3]; in test [4]; in test [5]) was > 30 µM (inactive) each time. In addition, the Kd (in test [6]; at Pyridoxal kinase; in [7]; in test [8]) was > 30 µM (inactive) in each case.
